Experiments:
yeast and mold = test: Yeast and mold (YM) count on leaf lettuce after direct application of halogen solution and during storage; format: cell-based; details: for Yeast and mold (YM) count populations: storage at 4-6° C.; for Log reduction of microbial populations from leaf lettuce surface / Percent reduction of microbial populations from leaf lettuce surface: YM, compared to unwashed control
Description: (§1) Solutions of either stabilized sodium hyprobromite or industrial unstabilized sodium hypochlorite were added to “tap” water in order to achieve a 50, 100, or 200 ppm total halogen residual (as chlorine). The “tap” water contained calcium (90 ppm as CaCO3), “M” alkalinity (110 ppm as CaCO3) and magnesium (50 ppm as CaCO3) in deionized water. The “tap” water was buffered at pH 7.5 using borax and monobasic potassium phosphate. Solutions of stabilized sodium hypobromite or unstabilized sodium hypochlorite were applied directly to leaf lettuce by dipping the lettuce in the solutions for 3-minutes. Lettuce was immediately removed, drained for 1-minute, rinsed for 30-seconds with potable water, drained for 1-minute, and then spun dry with a bench-top lettuce spinner. Lettuce was analyzed for microbial populations remaining on the surface and 50-gram portions were stored at 4-6° C. for shelf-life evaluation. Shelf-life was visually judged for changes in color (browning) and odor.

[1] = tested on: aerobic plate count bacteria; test: Aerobic plate count (APC) bacteria on leaf lettuce after direct application of halogen solution and during storage; format: cell-based; details: for Log reduction of microbial populations from leaf lettuce surface / Percent reduction of microbial populations from leaf lettuce surface: APC, compared to unwashed control; for Aerobic plate count (APC) bacterial populations: storage at 4-6° C.
Description: as §1

## OCl [Bleach, sodium hypochlorite]
Yeast and mold; Day 0, 50 ppm av. Cl2
  Yeast and mold (YM) count populations: 2.8 Log10 CFU/g lettuce
Yeast and mold; Day 0, 100 ppm av. Cl2
  Yeast and mold (YM) count populations: 2.9 Log10 CFU/g lettuce
Yeast and mold; Day 0, 200 ppm av. Cl2
  Yeast and mold (YM) count populations: 2.7 Log10 CFU/g lettuce
Yeast and mold; Day 1, 50 ppm av. Cl2
  Yeast and mold (YM) count populations: 2.7 Log10 CFU/g lettuce
Yeast and mold; Day 1, 100 ppm av. Cl2
  Yeast and mold (YM) count populations: 2.9 Log10 CFU/g lettuce
Yeast and mold; Day 1, 200 ppm av. Cl2
  Yeast and mold (YM) count populations: 2.7 Log10 CFU/g lettuce
Yeast and mold; Day 2, 50 ppm av. Cl2
  Yeast and mold (YM) count populations: 2.7 Log10 CFU/g lettuce
Yeast and mold; Day 2, 100 ppm av. Cl2
  Yeast and mold (YM) count populations: 2.8 Log10 CFU/g lettuce
Yeast and mold; Day 2, 200 ppm av. Cl2
  Yeast and mold (YM) count populations: 2.8 Log10 CFU/g lettuce
Yeast and mold; Day 4, 50 ppm av. Cl2
  Yeast and mold (YM) count populations: 4.5 Log10 CFU/g lettuce
Yeast and mold; Day 4, 100 ppm av. Cl2
  Yeast and mold (YM) count populations: 4.1 Log10 CFU/g lettuce
Yeast and mold; Day 4, 200 ppm av. Cl2
  Yeast and mold (YM) count populations: 4.4 Log10 CFU/g lettuce
Yeast and mold; Day 5, 50 ppm av. Cl2
  Yeast and mold (YM) count populations: 3.3 Log10 CFU/g lettuce
Yeast and mold; Day 5, 100 ppm av. Cl2
  Yeast and mold (YM) count populations: 3.5 Log10 CFU/g lettuce
Yeast and mold; Day 5, 200 ppm av. Cl2
  Yeast and mold (YM) count populations: 3.0 Log10 CFU/g lettuce
Yeast and mold; Day 6, 50 ppm av. Cl2
  Yeast and mold (YM) count populations: 3.8 Log10 CFU/g lettuce
Yeast and mold; Day 6, 100 ppm av. Cl2
  Yeast and mold (YM) count populations: 3.9 Log10 CFU/g lettuce
Yeast and mold; Day 6, 200 ppm av. Cl2
  Yeast and mold (YM) count populations: 4.5 Log10 CFU/g lettuce
Yeast and mold; Day 7, 50 ppm av. Cl2
  Yeast and mold (YM) count populations: 3.7 Log10 CFU/g lettuce
Yeast and mold; Day 7, 100 ppm av. Cl2
  Yeast and mold (YM) count populations: 4.5 Log10 CFU/g lettuce
Yeast and mold; Day 7, 200 ppm av. Cl2
  Yeast and mold (YM) count populations: 4.0 Log10 CFU/g lettuce
Yeast and mold; Day 8, 50 ppm av. Cl2
  Yeast and mold (YM) count populations: 4.4 Log10 CFU/g lettuce
Yeast and mold; Day 8, 100 ppm av. Cl2
  Yeast and mold (YM) count populations: 4.9 Log10 CFU/g lettuce
Yeast and mold; Day 8, 200 ppm av. Cl2
  Yeast and mold (YM) count populations: 4.4 Log10 CFU/g lettuce
Yeast and mold; Day 9, 50 ppm av. Cl2
  Yeast and mold (YM) count populations: 4.0 Log10 CFU/g lettuce
Yeast and mold; Day 9, 100 ppm av. Cl2
  Yeast and mold (YM) count populations: 4.6 Log10 CFU/g lettuce
Yeast and mold; Day 9, 200 ppm av. Cl2
  Yeast and mold (YM) count populations: 4.2 Log10 CFU/g lettuce
Yeast and mold; Day 10, 50 ppm av. Cl2
  Yeast and mold (YM) count populations: 4.1 Log10 CFU/g lettuce
Yeast and mold; Day 10, 100 ppm av. Cl2
  Yeast and mold (YM) count populations: 3.8 Log10 CFU/g lettuce
Yeast and mold; Day 10, 200 ppm av. Cl2
  Yeast and mold (YM) count populations: 4.5 Log10 CFU/g lettuce
Yeast and mold; Day 11, 50 ppm av. Cl2
  Yeast and mold (YM) count populations: 4.9 Log10 CFU/g lettuce
Yeast and mold; Day 11, 100 ppm av. Cl2
  Yeast and mold (YM) count populations: 4.5 Log10 CFU/g lettuce
Yeast and mold; Day 11, 200 ppm av. Cl2
  Yeast and mold (YM) count populations: 4.6 Log10 CFU/g lettuce
Yeast and mold; Day 12, 50 ppm av. Cl2
  Yeast and mold (YM) count populations: 5.5 Log10 CFU/g lettuce
Yeast and mold; Day 12, 100 ppm av. Cl2
  Yeast and mold (YM) count populations: 4.8 Log10 CFU/g lettuce
Yeast and mold; Day 12, 200 ppm av. Cl2
  Yeast and mold (YM) count populations: 4.8 Log10 CFU/g lettuce
Yeast and mold; 50 ppm av. Cl2
  Log reduction of microbial populations from leaf lettuce surface: 2.4 Log
  Percent reduction of microbial populations from leaf lettuce surface: 99.647%
Yeast and mold; 100 ppm av. Cl2
  Log reduction of microbial populations from leaf lettuce surface: 2.3 Log
  Percent reduction of microbial populations from leaf lettuce surface: 99.494%
Yeast and mold; 200 ppm av. Cl2
  Log reduction of microbial populations from leaf lettuce surface: 2.5 Log
  Percent reduction of microbial populations from leaf lettuce surface: 97.729%
Yeast and mold; lettuce washed with the halogen solution
  Yeasts and molds reduced: about 2 log
[1]; 50 ppm av. Cl2
  Log reduction of microbial populations from leaf lettuce surface: 2.1 Log
  Percent reduction of microbial populations from leaf lettuce surface: 99.200%
[1]; 100 ppm av. Cl2
  Log reduction of microbial populations from leaf lettuce surface: 2.1 Log
  Percent reduction of microbial populations from leaf lettuce surface: 99.120%
[1]; 200 ppm av. Cl2
  Log reduction of microbial populations from leaf lettuce surface: 2.1 Log
  Percent reduction of microbial populations from leaf lettuce surface: 99.200%
[1]; Day 0, 50 ppm av. Cl2
  Aerobic plate count (APC) bacterial populations: 5.3 Log10 CFU/g lettuce
[1]; Day 0, 100 ppm av. Cl2
  Aerobic plate count (APC) bacterial populations: 5.3 Log10 CFU/g lettuce
[1]; Day 0, 200 ppm av. Cl2
  Aerobic plate count (APC) bacterial populations: 5.3 Log10 CFU/g lettuce
[1]; Day 1, 50 ppm av. Cl2
  Aerobic plate count (APC) bacterial populations: 5.4 Log10 CFU/g lettuce
[1]; Day 1, 100 ppm av. Cl2
  Aerobic plate count (APC) bacterial populations: 5.3 Log10 CFU/g lettuce
[1]; Day 1, 200 ppm av. Cl2
  Aerobic plate count (APC) bacterial populations: 5.5 Log10 CFU/g lettuce
[1]; Day 2, 50 ppm av. Cl2
  Aerobic plate count (APC) bacterial populations: 6.4 Log10 CFU/g lettuce
[1]; Day 2, 100 ppm av. Cl2
  Aerobic plate count (APC) bacterial populations: 6.6 Log10 CFU/g lettuce
[1]; Day 2, 200 ppm av. Cl2
  Aerobic plate count (APC) bacterial populations: 7.0 Log10 CFU/g lettuce
[1]; Day 4, 50 ppm av. Cl2
  Aerobic plate count (APC) bacterial populations: 6.5 Log10 CFU/g lettuce
[1]; Day 4, 100 ppm av. Cl2
  Aerobic plate count (APC) bacterial populations: 6.6 Log10 CFU/g lettuce
[1]; Day 4, 200 ppm av. Cl2
  Aerobic plate count (APC) bacterial populations: 7.5 Log10 CFU/g lettuce
[1]; Day 5, 50 ppm av. Cl2
  Aerobic plate count (APC) bacterial populations: 6.0 Log10 CFU/g lettuce
[1]; Day 5, 100 ppm av. Cl2
  Aerobic plate count (APC) bacterial populations: 6.4 Log10 CFU/g lettuce
[1]; Day 5, 200 ppm av. Cl2
  Aerobic plate count (APC) bacterial populations: 6.6 Log10 CFU/g lettuce
[1]; Day 6, 50 ppm av. Cl2
  Aerobic plate count (APC) bacterial populations: 6.6 Log10 CFU/g lettuce
[1]; Day 6, 100 ppm av. Cl2
  Aerobic plate count (APC) bacterial populations: 6.6 Log10 CFU/g lettuce
[1]; Day 6, 200 ppm av. Cl2
  Aerobic plate count (APC) bacterial populations: 8.1 Log10 CFU/g lettuce
[1]; Day 7, 50 ppm av. Cl2
  Aerobic plate count (APC) bacterial populations: 7.2 Log10 CFU/g lettuce
[1]; Day 7, 100 ppm av. Cl2
  Aerobic plate count (APC) bacterial populations: 7.2 Log10 CFU/g lettuce
[1]; Day 7, 200 ppm av. Cl2
  Aerobic plate count (APC) bacterial populations: 7.7 Log10 CFU/g lettuce
[1]; Day 8, 50 ppm av. Cl2
  Aerobic plate count (APC) bacterial populations: 7.7 Log10 CFU/g lettuce
[1]; Day 8, 100 ppm av. Cl2
  Aerobic plate count (APC) bacterial populations: 8.1 Log10 CFU/g lettuce
[1]; Day 8, 200 ppm av. Cl2
  Aerobic plate count (APC) bacterial populations: 7.6 Log10 CFU/g lettuce
[1]; Day 9, 50 ppm av. Cl2
  Aerobic plate count (APC) bacterial populations: 7.6 Log10 CFU/g lettuce
[1]; Day 9, 100 ppm av. Cl2
  Aerobic plate count (APC) bacterial populations: 7.4 Log10 CFU/g lettuce
[1]; Day 9, 200 ppm av. Cl2
  Aerobic plate count (APC) bacterial populations: 7.5 Log10 CFU/g lettuce
[1]; Day 10, 50 ppm av. Cl2
  Aerobic plate count (APC) bacterial populations: 7.6 Log10 CFU/g lettuce
[1]; Day 10, 100 ppm av. Cl2
  Aerobic plate count (APC) bacterial populations: 7.0 Log10 CFU/g lettuce
[1]; Day 10, 200 ppm av. Cl2
  Aerobic plate count (APC) bacterial populations: 8.6 Log10 CFU/g lettuce
[1]; Day 11, 50 ppm av. Cl2
  Aerobic plate count (APC) bacterial populations: 8.0 Log10 CFU/g lettuce
[1]; Day 11, 100 ppm av. Cl2
  Aerobic plate count (APC) bacterial populations: 7.9 Log10 CFU/g lettuce
[1]; Day 11, 200 ppm av. Cl2
  Aerobic plate count (APC) bacterial populations: 8.5 Log10 CFU/g lettuce
[1]; Day 12, 50 ppm av. Cl2
  Aerobic plate count (APC) bacterial populations: 8.3 Log10 CFU/g lettuce
[1]; Day 12, 100 ppm av. Cl2
  Aerobic plate count (APC) bacterial populations: 8.0 Log10 CFU/g lettuce
[1]; Day 12, 200 ppm av. Cl2
  Aerobic plate count (APC) bacterial populations: 8.4 Log10 CFU/g lettuce
